For the test, the system named is E. coli efflux del. The test is described as follows: microbe, parasite or virus in culture. The class given is cell-based. As to conditions: Table 2 prints no unit; μM for compounds; antibiotics tested at 0.125–64 µg/mL. The procedure: Selected bacterial strains were Gram-negative E. coli, K. pneumoniae, A. baumannii and P. aeruginosa and Gram-positive S. aureus, S. pneumoniae, and E. faecalis. The synthesized compounds were prepared as 10 mM DMSO solutions and tested in a final concentration range of 0.2–100 µM [39].
Broth microdilution testing was performed according to CLSI (Clinical Laboratory Standards Institute) guidelines. The MIC (minimal inhibitory concentration) value was defined as the last tested concentration of the compound at which there was no visible growth of bacteria. Inoculums for each microorganism were prepared using the direct colony suspension method, where broth solutions that achieved turbidity equivalent to 0.5 McFarland standard were additionally diluted 100× with Ca adjusted MH media (Becton Dickinson, Franklin Lakes, NJ, USA). All of the test plates were incubated for 16–24 h at 37 °C.
Methods for dilution of antimicrobial susceptibility tests for bacteria that grow aerobically followed M07, 11th edition, 2018, and Clinical and Laboratory Standards Institute (CLSI) guidelines. Performance standards for antimicrobial susceptibility testing followed the M100, 28th edition, 2018.

Take `C[C@@H](O)[C@H]1C(=O)N2C(C(=O)O)=C(S[C@@H]3CN[C@H](C(=O)N(C)C)C3)[C@H](C)[C@H]12` [Meropenem, meropenem, reference compound]: the “MIC E. coli efflux del” value came out at 8.

(Values after publication PMC10180076, “Novel Biologically Active N-Substituted Benzimidazole Derived Schiff Bases: Design, Synthesis, and Biological Evaluation” (Molecules, 2023).)
